Among the data in patent US10660876B2, “Amino compounds for treatment of medical disorders” (Achillion Pharmaceuticals, Inc., priority 2015, dated 2020) are IC50 values, retold here.

pIC50: −log10 of the molar value. Some results are limits rather than exact numbers.

Sequence of Human Factor D (P00746 26-253): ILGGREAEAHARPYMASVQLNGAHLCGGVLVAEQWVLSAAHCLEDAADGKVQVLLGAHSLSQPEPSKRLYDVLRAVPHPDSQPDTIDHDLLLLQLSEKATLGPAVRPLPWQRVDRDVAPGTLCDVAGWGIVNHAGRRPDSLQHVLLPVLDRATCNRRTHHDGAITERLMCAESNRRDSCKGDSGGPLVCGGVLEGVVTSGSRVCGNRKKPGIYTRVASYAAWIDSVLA

One experiment concerns the target Human Factor D (Homo sapiens (Human), UniProt P00746). Nature of the experiment: Human Factor D Assay. Format: biochemical. As to conditions: Table 1; Factor D purified from human serum, 80 nM, substrate Z-L-Lys-SBzl; read-out: IC50. In outline: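 Serum-purified human Factor D (80 nM final) preincubated with compound for 5 min at room temperature in 50 mM Tris, 1 M NaCl, pH 7.5. Z-L-Lys-SBzl and DTNB added at 100 μM each; A405 read every 30 s for 30 min. IC50 by nonlinear regression of reaction rates.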
`CC(=O)c1cn(CC(=O)N2C[C@H](F)C[C@H]2C(=O)Nc2cncc(Br)n2)c2ccc(Nc3cncnc3)cc12` [Compound 47, (2S,4R)-1-(2-(3-acetyl-5-(pyrimidin-5-ylamino)-1H-indol-1-yl)acetyl)-N-(6-bromopyrazin-2-yl)-4-fluoropyrrolidine-2-carboxamide]: the pIC50 – broadly, −log10 of the IC50, conventionally taken in molar units – was over 6.00. `CC(=O)c1cn(CC(=O)N2C[C@H](F)C[C@H]2C(=O)NCc2cccc(Cl)c2F)c2cc(NS(=O)(=O)C(F)(F)F)ccc12` [Compound 2, (2S,4R)-1-(2-(3-acetyl-6-(trifluoromethyl-sulfonamido)-1H-indol-1-yl)acetyl)-N-(3-chloro-2-fluorobenzyl)-4-fluoropyrrolidine-2-carboxamide]: the pIC50 was over 6.00. Consider `CC(=O)c1cn(CC(=O)N2C[C@H](F)C[C@H]2C(=O)NC2CCN(c3ccn(C)n3)C2=O)c2ccc(Nc3cncnc3)cc12` (stereo partly drawn) [Compound 64, (2S,4R)-1-(2-(3-acetyl-5-(pyrimidin-5-ylamino)-1H-indol-1-yl)acetyl)-4-fluoro-N-(1-(1-methyl-1H-pyrazol-3-yl)-2-oxopyrrolidin-3-yl)pyrrolidine-2-carboxamide], for which the negative logarithm of the IC50 (pIC50) is over 6.00. Still for that read-out and setting: the value for `CC(=O)c1cn(CC(=O)N2C[C@H](F)C[C@H]2C(=O)Nc2cccnc2)c2ccc(Nc3cncnc3)cc12` [Compound 31, (2S,4R)-1-(2-(3-acetyl-5-(pyrimidin-5-ylamino)-1H-indol-1-yl)acetyl)-4-fluoro-N-(pyridin-3-yl)pyrrolidine-2-carboxamide] was over 6.00; that for `CC(=O)c1cn(CC(=O)N2C[C@H](F)C[C@H]2C(=O)Nc2cncc(Br)c2)c2ccc(Nc3cncnc3)cc12` [Compound 21, (2S,4R)-1-(2-(3-acetyl-5-(pyrimidin-5-ylamino)-1H-indol-1-yl)acetyl)-N-(5-bromopyridin-3-yl)-4-fluoropyrrolidine-2-carboxamide] was over 6.00. `CC(=O)c1cn(CC(=O)N2C[C@H](F)C[C@H]2C(=O)Nc2cncc(Cl)n2)c2ccc(Nc3cncnc3)cc12` [Compound 33, (2S,4R)-1-(2-(3-acetyl-5-(pyrimidin-5-ylamino)-1H-indol-1-yl)acetyl)-N-(6-chloropyrazin-2-yl)-4-fluoropyrrolidine-2-carboxamide]: the negative logarithm of the IC50 (pIC50) was over 6.00. Same read-out and setting: the value for `CC(=O)c1cn(CC(=O)N2C[C@H](F)C[C@H]2C(=O)NCc2ccncc2)c2ccc(Nc3cncnc3)cc12` [Compound 59, (2S,4R)-1-(2-(3-acetyl-5-(pyrimidin-5-ylamino)-1H-indol-1-yl)acetyl)-4-fluoro-N-(pyridin-4-ylmethyl) pyrrolidine-2-carboxamide] was over 6.00; that for `CC(=O)c1cn(CC(=O)N2C[C@H](F)C[C@H]2C(=O)Nc2ccc3ccccc3c2)c2ccc(Nc3cncnc3)cc12` [Compound 46, (2S,4R)-1-(2-(3-acetyl-5-(pyrimidin-5-ylamino)-1H-indol-1-yl)acetyl)-4-fluoro-N-(naphthalen-2-yl)pyrrolidine-2-carboxamide] was over 6.00.

The experiment is the same for the next values; noted with them: Table 3; Factor D purified from human serum, 80 nM, substrate Z-L-Lys-SBzl; read-out: IC50 (Stars).
Consider `CC(=O)c1cn(CC(=O)N2C[C@H](F)C[C@H]2C(=O)NCCc2ccccc2)c2ccc(Nc3cncnc3)cc12` [Compound 154, (2S,4R)-1-(2-(3-acetyl-5-(pyrimidin-5-ylamino)-1H-indol-1-yl)acetyl)-4-fluoro-N-phenethylpyrrolidin-2-carboxamide], for which the pIC50 is over 6.00.

On to `CC(=O)c1nn(CC(=O)N2C[C@H](F)C[C@H]2C(=O)Nc2cccc(Br)n2)c2ccc(Nc3cncc(F)c3)cc12` [Compound 164, (2S,4R)-1-(2-(3-acetyl-5-((5-yl)amino)-1H-indazol-1-yl)acetyl)-N-(6-bromopyridin-2-yl)-4-fluoropyrrolidine-2-carboxamide], for which the pIC50 was over 6.00. Consider `CC(=O)c1cn(CC(=O)N2C[C@H](F)C[C@H]2C(=O)NCCCc2ccccc2)c2ccc(Nc3cncnc3)cc12` [Compound 155, (2S,4R)-1-(2-(3-acetyl-5-(pyrimidin-5-ylamino)-1H-indol-1-yl)acetyl)-4-fluoro-N-(3-phenylpropyl) pyrrolidine-2-carboxamide], for which the pIC50 is over 6.00.
